Data published in US10864196B2, “Modulators of the integrated stress pathway” (Calico Life Sciences LLC, priority 2016, dated 2020).

Tested on: HEK293T cells carrying the ATF4 luciferase reporter
Assay: ATF4-Luc assay (in vitro model of VWMD)
Format: cell-based
Conditions: Homo sapiens, HEK-293T, 1 μg/mL tunicamycin, 7 hours, One Glo luminescence
Procedure: In order to test exemplary compounds of the invention in a cellular context, a stable VWMD cell line was first constructed. The ATF4 reporter was prepared by fusing the human full-length ATF4 5′-UTR (NCBI Accession No. BC022088.2) in front of the firefly luciferase (FLuc) coding sequence lacking the initiator methionine as described in Sidrauski et al (eLife 2013). The construct was used to produce recombinant retroviruses using standard methods and the resulting viral supernatant was used to transduce HEK293T cells, which were then subsequently selected with puromycin to generate a stable cell line.
HEK293T cells carrying the ATF4 luciferase reporter were plated on polylysine coated 384-well plates (Greiner Bio-one) at 30,000 cells per well. Cells were treated the next day with 1 μg/mL tunicamycin and 200 nM of a compound of Formula (I) for 7 hours. Luminescence was measured using One Glo (Promega) as specified by the manufacturer. Cells were maintained in DMEM with L-glutamine supplemented with 10% heat-inactivated FBS (Gibco) and Antibiotic-Antimycotic solution (Gibco).
Table 2 below summarizes the EC50 data obtained using the ATF4-Luc assay for exemplary compounds of the invention.

Structure (SMILES)	EC50
N#Cc1ccc(Oc2nnc(C34CC(NC(=O)COc5ccc(Cl)c(F)c5)(C3)C4)o2)cn1 [Compound 119, 2-(4-chloro-3-fluorophenoxy)-N-(3-{5-[(6-cyanopyridin-3-yl)oxy]-1,3,4-oxadiazol-2-yl}bicyclo[1.1.1]pentan-1-yl)acetamide]	0.25 to 1 µM
O=C(COc1ccc(F)cc1)NC12CC(c3nc(COc4ccc(Cl)cc4)no3)(C1)C2 [Compound 108, N-(3-{3-[(4-chlorophenoxy)methyl]-1,2,4-oxadiazol-5-yl}bicyclo[1.1.1]pentan-1-yl)-2-(4-fluorophenoxy)acetamide]	0.25 to 1 µM
O=C(COc1ccc(Cl)c(F)c1)NC12CC(c3nnc(Oc4ccc(C(F)(F)F)nc4)o3)(C1)C2 [Compound 116, 2-(4-chloro-3-fluorophenoxy)-N-[3-(5-{[6-(trifluoromethyl)pyridin-3-yl]oxy}-1,3,4-oxadiazol-2-yl)bicyclo[1.1.1]pentan-1-yl]acetamide]	0.05 to 0.25 µM
O=C(COc1ccc(Cl)c(F)c1)NC12CC(c3nc(COc4cncc(C(F)(F)F)c4)no3)(C1)C2 [Compound 159, 2-(4-chloro-3-fluorophenoxy)-N-{3-[3-({[5-(trifluoromethyl)pyridin-3-yl]oxy}methyl)-1,2,4-oxadiazol-5-yl]bicyclo[1.1.1]pentan-1-yl}acetamide]	0.05 to 0.25 µM
COc1ccc(OCc2nnc(C34CC(NC(=O)COc5ccc(Cl)c(F)c5)(C3)C4)o2)cn1 [Compound 142, 2-(4-chloro-3-fluorophenoxy)-N-[3-(5-{[(6-methoxypyridin-3-yl)oxy]methyl}-1,3,4-oxadiazol-2-yl)bicyclo[1.1.1]pentan-1-yl]acetamide]	< 0.05 µM
N#Cc1cncc(OCc2nnc(C34CC(NC(=O)COc5ccc(Cl)c(F)c5)(C3)C4)o2)c1 [Compound 144, 2-(4-chloro-3-fluorophenoxy)-N-[3-(5-{[(5-cyanopyridin-3-yl)oxy]methyl}-1,3,4-oxadiazol-2-yl)bicyclo[1.1.1]pentan-1-yl]acetamide]	> 2 µM
Cc1cccc(OCC(=O)NC23CC(c4nc(COc5ccc(Cl)cc5)no4)(C2)C3)c1 [Compound 102, N-(3-{3-[(4-chlorophenoxy)methyl]-1,2,4-oxadiazol-5-yl}bicyclo[1.1.1]pentan-1-yl)-2-(3-methylphenoxy)acetamide]	1 to 2 µM
COc1ccc(OCc2nnc(C34CC(NC(=O)COc5ccc(Cl)c(F)c5)(C3)C4)o2)c(C)n1 [Compound 151, 2-(4-chloro-3-fluorophenoxy)-N-[3-(5-{[(6-methoxy-2-methylpyridin-3-yl)oxy]methyl}-1,3,4-oxadiazol-2-yl)bicyclo[1.1.1]pentan-1-yl]acetamide]	1 to 2 µM
O=C(COc1ccc(Cl)c(F)c1)NC12CC(c3nc(COc4ccc(Cl)c(F)c4)c[nH]3)(C1)C2 [Compound 168, 2-(4-chloro-3-fluorophenoxy)-N-(3-{4-[(4-chloro-3-fluorophenoxy)methyl]-1H-imidazol-2-yl}bicyclo[1.1.1]pentan-1-yl)acetamide]	< 0.05 µM
O=C(COc1cccc(Cl)c1)NC12CC(c3nc(COc4ccc(Cl)cc4)no3)(C1)C2 [Compound 106, 2-(3-chlorophenoxy)-N-(3-{3-[(4-chlorophenoxy)methyl]-1,2,4-oxadiazol-5-yl}bicyclo[1.1.1]pentan-1-yl)acetamide]	0.25 to 1 µM
O=C(COc1ccc(Cl)c(F)c1)NC12CC(c3nnc(COc4ccc(C(F)(F)F)nc4)o3)(C1)C2 [Compound 141, 2-(4-chloro-3-fluorophenoxy)-N-{3-[5-({[6-(trifluoromethyl)pyridin-3-yl]oxy}methyl)-1,3,4-oxadiazol-2-yl]bicyclo[1.1.1]pentan-1-yl}acetamide]	0.05 to 0.25 µM
Cc1ncc(OCc2nnc(C34CC(NC(=O)COc5ccc(Cl)c(F)c5)(C3)C4)o2)cc1Cl [Compound 145, 2-(4-chloro-3-fluorophenoxy)-N-[3-(5-{[(5-chloro-6-methylpyridin-3-yl)oxy]methyl}-1,3,4-oxadiazol-2-yl)bicyclo[1.1.1]pentan-1-yl]acetamide]	0.05 to 0.25 µM
O=C(COc1ccc(Cl)c(F)c1)NC12CC(c3nnc(Oc4ccc(C5CC5)nc4)o3)(C1)C2 [Compound 121, 2-(4-chloro-3-fluorophenoxy)-N-(3-{5-[(6-cyclopropylpyridin-3-yl)oxy]-1,3,4-oxadiazol-2-yl}bicyclo[1.1.1]pentan-1-yl)acetamide]	0.05 to 0.25 µM
O=C(COc1ccc(Cl)c(Cl)c1)NC12CC(c3nnc(COc4ccc(Cl)cc4)o3)(C1)C2 [Compound 109, N-(3-{5-[(4-chlorophenoxy)methyl]-1,3,4-oxadiazol-2-yl}bicyclo[1.1.1]pentan-1-yl)-2-(3,4-dichlorophenoxy)acetamide]	< 0.05 µM
O=C(COc1ccc(Cl)c(F)c1)NC12CC(c3nc(COc4cnc(C(F)(F)F)c(Cl)c4)no3)(C1)C2 [Compound 162, 2-(4-chloro-3-fluorophenoxy)-N-{3-[3-({[5-chloro-6-(trifluoromethyl)pyridin-3-yl]oxy}methyl)-1,2,4-oxadiazol-5-yl]bicyclo[1.1.1]pentan-1-yl}acetamide]	0.05 to 0.25 µM
O=C(COc1ccc(Cl)c(F)c1)NC12CC(c3nnc(Oc4ccc(F)cc4)o3)(C1)C2 [Compound 126, 2-(4-chloro-3-fluorophenoxy)-N-{3-[5-(4-fluorophenoxy)-1,3,4-oxadiazol-2-yl]bicyclo[1.1.1]pentan-1-yl}acetamide]	< 0.05 µM
O=C(COc1ccc(Cl)c(Cl)c1)NC12CC(c3nc(COc4ccc(Cl)cc4)no3)(C1)C2 [Compound 105, N-(3-{3-[(4-chlorophenoxy)methyl]-1,2,4-oxadiazol-5-yl}bicyclo[1.1.1]pentan-1-yl)-2-(3,4-dichlorophenoxy)acetamide]	< 0.05 µM
O=C(COc1ccc(Cl)c(F)c1)NC12CC(c3nnc(Oc4cccc(C(F)(F)F)c4)o3)(C1)C2 [Compound 139, 2-(4-chloro-3-fluorophenoxy)-N-(3-{5-[3-(trifluoromethyl)phenoxy]-1,3,4-oxadiazol-2-yl}bicyclo[1.1.1]pentan-1-yl)acetamide]	< 0.05 µM
O=C(COc1ccc(Cl)c(F)c1)NC12CC(c3nc(COc4ccc(C(F)(F)F)nc4)c[nH]3)(C1)C2 [Compound 169, 2-(4-chloro-3-fluorophenoxy)-N-{3-[4-({[6-(trifluoromethyl)pyridin-3-yl]oxy}methyl)-1H-imidazol-2-yl]bicyclo[1.1.1]pentan-1-yl}acetamide]	> 2 µM
O=C(COc1ccc(Cl)c(F)c1)NC12CCC(c3nc(COc4ccnc(C(F)(F)F)c4)no3)(CC1)C(O)C2 (stereo not shown) [Compound 167, 2-(4-chloro-3-fluorophenoxy)-N-{3-hydroxy-4-[3-({[2-(trifluoromethyl)pyridin-4-yl]oxy}methyl)-1,2,4-oxadiazol-5-yl]bicyclo[2.2.2]octan-1-yl}acetamide]	0.05 to 0.25 µM
O=C(COc1ccc2c(c1)OC(F)(F)O2)NC12CC(c3nnc(COc4ccc(Cl)c(F)c4)o3)(C1)C2 [Compound 133, N-(3-{5-[(4-chloro-3-fluorophenoxy)methyl]-1,3,4-oxadiazol-2-yl}bicyclo-[1.1.1]pentan-1-yl)-2-[(2,2-difluoro-2H-1,3-benzodioxol-5-yl)oxy]acetamide]	< 0.05 µM
Cc1ccc(OCC(=O)NC23CC(c4nc(COc5ccc(Cl)cc5)no4)(C2)C3)cc1 [Compound 103, N-(3-{3-[(4-chlorophenoxy)methyl]-1,2,4-oxadiazol-5-yl}bicyclo[1.1.1]pentan-1-yl)-2-(4-methylphenoxy)acetamide]	0.05 to 0.25 µM
